The target in data set [1] is T1, NfMCU (mitochondrial calcium uniporter ortholog) (Aspergillus fischeri, UniProt A1CWT6).
T1 sequence (A1CWT6 76-488): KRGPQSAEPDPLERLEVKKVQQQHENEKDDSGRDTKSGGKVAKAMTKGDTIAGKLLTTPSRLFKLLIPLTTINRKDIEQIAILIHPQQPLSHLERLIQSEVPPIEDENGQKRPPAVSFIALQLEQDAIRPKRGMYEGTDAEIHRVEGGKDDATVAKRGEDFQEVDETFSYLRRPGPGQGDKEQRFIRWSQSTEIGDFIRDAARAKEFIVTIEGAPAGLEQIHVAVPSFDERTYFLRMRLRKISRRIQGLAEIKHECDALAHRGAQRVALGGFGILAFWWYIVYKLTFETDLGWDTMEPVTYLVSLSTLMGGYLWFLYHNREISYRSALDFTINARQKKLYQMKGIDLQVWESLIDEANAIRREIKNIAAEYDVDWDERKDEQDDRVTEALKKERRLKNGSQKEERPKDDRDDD
As to the kind of experiment: […] flux block in proteoliposomes of purified NfMCU. The data set is classed as cell-based.

The data set “cryo-EM structure” deals with the molecule itself. As to the kind of experiment: cryo-EM structure.

For the molecule `[NH2][Ru-3]([NH2])([NH2])([NH3+])([O]C=O)[O][Ru-2]([NH3+])([NH3+])([NH3+])([NH3+])[O]C=O` [Ru360], the IC50 (as a rule, the concentration that gives 50% inhibition) in data set [1] was 500 nM.

B1: saposin (scaffolding protein, 81 residues) (natural protein)
chain: SLPCDICKDVVTAAGDMLKDNATEEEILVYLEKTCDWLPKPNMSASCKEIVDSYLPVILDIIKGEMSRPGEVCSALNLCESLQ
B1: in “cryo-EM structure”, the stoichiometry N (in general, a count of units in the complex or per binding partner) came to 6.

The values are drawn from article PMC6063787 (Nature, 2018).
